Assay [1] has as its system breast line MDA468. The experiment in a line: In vitro cell culture growth assay (MTS), MDA468. The class given is cell-based, human. The following applies: MDA468 cells, three days after drug treatment. In a few lines: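 MDA468 or LNCap cells received inhibitors one day after plating and were grown for three days. Viable cell density read by MTS conversion, absorbance 490 nm, expressed as percent of control growth versus vehicle-treated cells on the same plate.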

Assay [2] concerns prostate line LNCap. Put plainly: In vitro cell culture growth assay (MTS), LNCap. The following applies: LNCap cells, three days after drug treatment. The class given is cell-based, human.
The target of assay [3] is PI3K (Homo sapiens, UniProt P42336). The experiment in a line: Fluorescence polarization assay for PI3K.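 Also: PI3K kinase reaction on PIP2 with ATP, 30-60 min, product sensed by GST-GRP with red probe in fluorescence polarization (mP), controls without enzyme and at zero time.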 Type of assay: biochemical.

The values that follow come from US20080234262A1 (Wyeth, priority 2007, published 2008).

What is called IC50 is the point on the concentration scale where inhibition reaches its midpoint.

Where two headings read alike, the source gives them in different places.

PI3K, sequence (P42336 whole entry): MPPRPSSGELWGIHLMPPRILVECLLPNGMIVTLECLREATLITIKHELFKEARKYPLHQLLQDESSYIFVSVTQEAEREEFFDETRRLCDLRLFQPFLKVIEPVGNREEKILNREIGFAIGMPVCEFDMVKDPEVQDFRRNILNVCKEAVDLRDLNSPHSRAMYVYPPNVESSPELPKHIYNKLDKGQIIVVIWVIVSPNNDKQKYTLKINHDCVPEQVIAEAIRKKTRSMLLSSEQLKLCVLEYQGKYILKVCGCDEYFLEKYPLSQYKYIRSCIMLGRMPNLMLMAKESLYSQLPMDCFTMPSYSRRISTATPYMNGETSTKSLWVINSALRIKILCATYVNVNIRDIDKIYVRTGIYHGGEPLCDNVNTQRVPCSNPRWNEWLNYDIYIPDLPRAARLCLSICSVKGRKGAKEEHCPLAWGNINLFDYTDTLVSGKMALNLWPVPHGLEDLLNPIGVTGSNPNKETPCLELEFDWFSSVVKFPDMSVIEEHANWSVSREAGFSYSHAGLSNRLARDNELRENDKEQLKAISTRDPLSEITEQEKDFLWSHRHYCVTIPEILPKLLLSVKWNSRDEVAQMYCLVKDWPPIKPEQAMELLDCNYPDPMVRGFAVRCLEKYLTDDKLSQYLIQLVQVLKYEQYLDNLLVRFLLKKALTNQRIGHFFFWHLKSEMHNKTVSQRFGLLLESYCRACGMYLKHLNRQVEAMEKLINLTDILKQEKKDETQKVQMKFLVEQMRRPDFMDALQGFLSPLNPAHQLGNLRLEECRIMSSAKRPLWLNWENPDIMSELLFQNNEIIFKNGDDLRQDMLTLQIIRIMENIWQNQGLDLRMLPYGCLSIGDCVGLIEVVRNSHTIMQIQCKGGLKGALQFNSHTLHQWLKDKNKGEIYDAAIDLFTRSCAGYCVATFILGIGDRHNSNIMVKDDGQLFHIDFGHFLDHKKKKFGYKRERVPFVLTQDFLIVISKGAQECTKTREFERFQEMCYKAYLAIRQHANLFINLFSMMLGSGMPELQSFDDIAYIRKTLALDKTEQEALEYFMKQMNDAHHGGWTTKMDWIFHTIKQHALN
PI3K, sequence (P27986 whole entry partner): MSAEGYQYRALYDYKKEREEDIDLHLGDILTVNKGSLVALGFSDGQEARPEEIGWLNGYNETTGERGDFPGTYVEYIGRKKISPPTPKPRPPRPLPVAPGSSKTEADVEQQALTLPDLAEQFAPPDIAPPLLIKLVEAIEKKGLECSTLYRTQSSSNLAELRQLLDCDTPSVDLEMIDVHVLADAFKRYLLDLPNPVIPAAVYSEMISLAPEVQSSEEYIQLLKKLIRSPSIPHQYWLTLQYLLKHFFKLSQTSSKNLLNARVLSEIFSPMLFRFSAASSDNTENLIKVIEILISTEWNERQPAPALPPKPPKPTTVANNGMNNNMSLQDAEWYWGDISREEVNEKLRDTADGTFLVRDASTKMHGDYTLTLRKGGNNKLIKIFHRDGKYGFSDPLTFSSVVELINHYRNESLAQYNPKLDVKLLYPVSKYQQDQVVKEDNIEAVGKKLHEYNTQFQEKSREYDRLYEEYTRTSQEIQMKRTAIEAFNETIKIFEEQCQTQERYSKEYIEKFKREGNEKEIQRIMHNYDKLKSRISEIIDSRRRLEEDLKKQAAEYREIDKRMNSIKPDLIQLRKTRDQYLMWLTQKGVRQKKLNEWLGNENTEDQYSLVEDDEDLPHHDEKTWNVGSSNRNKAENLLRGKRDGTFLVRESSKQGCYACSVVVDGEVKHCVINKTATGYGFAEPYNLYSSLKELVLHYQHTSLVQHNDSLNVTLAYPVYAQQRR

For the molecule `CCCOC(=O)N1CCC(n2ncc3c(N4CCOCC4)nc(-c4ccc(NC(=O)Nc5ccncc5)cc4)nc32)CC1` [Compound 851, propyl 4-(4-morpholin-4-yl-6-{4-[(pyridin-4-ylcarbamoyl)amino]phenyl}-1H-pyrazolo[3,4-d]pyrimidin-1-yl)piperidine-1-carboxylate], the IC50 in assay [1] (Homo sapiens, 72 h) was 110 nM; in assay [2] (Homo sapiens, LNCaP, 72 h), less than 27 nM; in assay [3] (PI3Kα, read-out: PI3Kα IC50), 22 nM.
On to `CNC(=O)Nc1ccc(-c2nc(N3CCOCC3)c3cnn(C4CCN(C(=O)c5cccnc5Cl)CC4)c3n2)cc1` [Compound 425, 1-[4-(1-{1-[(2-chloropyridin-3-yl)carbonyl]piperidin-4-yl}-4-morpholin-4-yl-1H-pyrazolo[3,4-d]pyrimidin-6-yl)phenyl]-3-methylurea], for which the IC50 came to 500 nM in assay [1] (Homo sapiens, 72 h); 80 nM in assay [2] (Homo sapiens, LNCaP, 72 h); 100 nM in assay [3] (PI3Kα, read-out: PI3Kα IC50).
Consider `c1ccc(-n2ncc3c(N4CCOCC4)nc(-c4ccc5occc5c4)nc32)cc1` [Compound 117], for which the IC50 in assay [1] (Homo sapiens, 72 h) came to 60000 nM; in assay [2] (Homo sapiens, LNCaP, 72 h), 60000 nM; in assay [3] (PI3Kα, read-out: PI3Kα IC50), 699 nM.
For the molecule `O=C(Nc1ccc(-c2nc(N3CCOCC3)c3cnn(C4CCN(C(=O)c5cccnc5)CC4)c3n2)cc1)Nc1ccccn1` [Example 345, 1-(4-{4-morpholin-4-yl-1-[1-(pyridin-3-ylcarbonyl)piperidin-4-yl]-1H-pyrazolo[3,4-d]pyrimidin-6-yl}phenyl)-3-pyridin-2-ylurea], the IC50 in assay [1] (Homo sapiens, 72 h) came to 700 nM; in assay [2] (Homo sapiens, LNCaP, 72 h), 95 nM; in assay [3] (PI3Kα, read-out: PI3Kα IC50) it was 261 nM.
For `CC(C)C(=O)N1CCC(n2ncc3c(N4CCOCC4)nc(-c4ccc(NC(=O)NCCO)cc4)nc32)CC1` [Compound 823, 1-(2-hydroxyethyl)-3-{4-[1-(1-isobutyrylpiperidin-4-yl)-4-morpholin-4-yl-1H-pyrazolo[3,4-d]pyrimidin-6-yl]phenyl}urea], the IC50 in assay [1] (Homo sapiens, 72 h) came to 320 nM; in assay [2] (Homo sapiens, LNCaP, 72 h), 3500 nM; in assay [3] (PI3Kα, read-out: PI3Kα IC50) it was 571 nM.
For the molecule `COCCOC(=O)Nc1ccc(-c2nc(N3CCOCC3)c3cnn(C4CCN(C(=O)OC)CC4)c3n2)cc1` [Compound 902, methyl 4-[6-(4-{[(2-methoxyethoxy)carbonyl]amino}phenyl)-4-morpholin-4-yl-1H-pyrazolo[3,4-d]pyrimidin-1-yl]piperidine-1-carboxylate], the IC50 in assay [1] (Homo sapiens, 72 h) is more than 60000 nM; in assay [2] (Homo sapiens, LNCaP, 72 h), 3300 nM; in assay [3] (PI3Kα, read-out: PI3Kα IC50), 3050 nM.
Taken in the same sequence, the figures for `NC(=O)CN1CCC(n2ncc3c(N4CCOCC4)nc(-c4ccc5[nH]ccc5c4)nc32)CC1` [Compound 495, 2-{4-[6-(1H-indol-5-yl)-4-morpholin-4-yl-1H-pyrazolo[3,4-d]pyrimidin-1-yl]piperidin-1-yl}acetamide] were 2800 nM, 800 nM and 2660 nM.
As to `CNC(=O)Nc1ccc(-c2nc(N3CCOCC3)c3cnn(C4CCN(Cc5ccc(Br)nc5)CC4)c3n2)cc1` [Example 389, 1-[4-(1-{1-[(6-bromopyridin-3-yl)methyl]piperidin-4-yl}-4-morpholin-4-yl-1H-pyrazolo[3,4-d]pyrimidin-6-yl)phenyl]-3-methylurea], the IC50 turned out to be 100 nM in assay [1] (Homo sapiens, 72 h); 27 nM in assay [2] (Homo sapiens, LNCaP, 72 h); 31 nM in assay [3] (PI3Kα, read-out: PI3Kα IC50).
As for `CCNC(=O)Nc1ccc(-c2nc(N3CCOCC3)c3cnn(C4CCN(C(=O)C(C)C)CC4)c3n2)cc1` [Compound 822, 1-ethyl-3-{4-[1-(1-isobutyrylpiperidin-4-yl)-4-morpholin-4-yl-1H-pyrazolo[3,4-d]pyrimidin-6-yl]phenyl}urea], the IC50 in assay [1] (Homo sapiens, 72 h) stood at 500 nM; in assay [2] (Homo sapiens, LNCaP, 72 h), 120 nM; in assay [3] (PI3Kα, read-out: PI3Kα IC50), 1230 nM.
For `c1ccc(CN2CCC(n3ncc4c(N5CCOCC5)nc(-c5ccc6nonc6c5)nc43)CC2)cc1` [Compound 190] the same measures were 6000 nM, 6200 nM and 1320 nM.
Take `COC(=O)N1CCC(n2ncc3c(N4CCOC(C)C4)nc(-c4ccc(NC(=O)NCCO)cc4)nc32)CC1` (stereo not drawn) [Compound 845, methyl 4-[6-(4-{[(2-hydroxyethyl)carbamoyl]amino}phenyl)-4-(2-methylmorpholin-4-yl)-1H-pyrazolo[3,4-d]pyrimidin-1-yl]piperidine-1-carboxylate]: the IC50 came out at 1600 nM in assay [1] (Homo sapiens, 72 h); 1100 nM in assay [2] (Homo sapiens, LNCaP, 72 h); 402 nM in assay [3] (PI3Kα, read-out: PI3Kα IC50).
For `CNC(=O)Nc1ccc(-c2nc(N3CCOCC3)c3cnn(C4CCN(C(=O)c5cccc(C(C)=O)c5)CC4)c3n2)cc1` [Compound 667, 1-(4-{1-[1-(3-acetylbenzoyl)piperidin-4-yl]-4-morpholin-4-yl-1H-pyrazolo[3,4-d]pyrimidin-6-yl}phenyl)-3-methylurea], the IC50 in assay [1] stood at 150 nM; in assay [2], 110 nM; in assay [3] (PI3Kα, read-out: PI3Kα IC50), 83 nM.
Consider `COc1cccc(-c2nc(N3CCOCC3)c3cnn(C4CCN(Cc5ccccc5)CC4)c3n2)c1` [Example 32], for which the IC50 was determined as 10000 nM in assay [1] (Homo sapiens, 72 h); 8800 nM in assay [2] (Homo sapiens, LNCaP, 72 h); 1440 nM in assay [3] (PI3Kα, read-out: PI3Kα IC50).
Consider `CNC(=O)Nc1cccc(-c2nc(N3CCOCC3)c3cnn(C4CCN(Cc5ccccc5)CC4)c3n2)c1` [Compound 228, N-{3-[1-(1-benzylpiperidin-4-yl)-4-morpholin-4-yl-1H-pyrazolo[3,4-d]pyrimidin-6-yl]phenyl}-N′-methylurea], for which the IC50 was found to be 6800 nM in assay [1] (Homo sapiens, 72 h); 5800 nM in assay [2] (Homo sapiens, LNCaP, 72 h); 1920 nM in assay [3] (PI3Kα, read-out: PI3Kα IC50).
For `CC(C)(C)COC(=O)N1CCC(n2ncc3c(N4CCOCC4)nc(-c4ccc(NC(=O)Nc5cccnc5)cc4)nc32)CC1` [Compound 877, 2,2-dimethylpropyl 4-(4-morpholin-4-yl-6-{4-[(pyridin-3-ylcarbamoyl)amino]phenyl}-1H-pyrazolo[3,4-d]pyrimidin-1-yl)piperidine-1-carboxylate] the same measures were 400 nM, 120 nM and 32 nM.
On to `CC(C)N1CCC(n2ncc3c(N4CCOCC4)nc(-c4ccc5[nH]ccc5c4)nc32)CC1` [Compound 238, 6-(1H-indol-5-yl)-1-(1-isopropylpiperidin-4-yl)-4-morpholin-4-yl-1H-pyrazolo[3,4-d]pyrimidine], for which the IC50 in assay [1] (Homo sapiens, 72 h) turned out to be 2900 nM; in assay [2] (Homo sapiens, LNCaP, 72 h), 2500 nM; in assay [3] (PI3Kα, read-out: PI3Kα IC50) it was 3750 nM.
For the molecule `O=C(Nc1ccc(-c2nc(N3CCOCC3)c3cnn(C4CCN(Cc5cccnc5)CC4)c3n2)cc1)Nc1cccs1` [Compound 648, 1-(4-{4-morpholin-4-yl-1-[1-(pyridin-3-ylmethyl)piperidin-4-yl]-1H-pyrazolo[3,4-d]pyrimidin-6-yl}phenyl)-3-(2-thienyl)urea], the IC50 in assay [1] was 60 nM; in assay [2], less than 27 nM; in assay [3] (PI3Kα, read-out: PI3Kα IC50), 8 nM.
Consider `CNC(=O)Nc1ccc(-c2nc(N3CCOCC3)c3cnn(C4CCN(C(=O)c5ccc(OC)cc5)CC4)c3n2)cc1` [Example 363, 1-(4-{1-[1-(4-methoxybenzoyl)piperidin-4-yl]-4-morpholin-4-yl-1H-pyrazolo[3,4-d]pyrimidin-6-yl}phenyl)-3-methylurea], for which the IC50 in assay [1] (Homo sapiens, 72 h) was found to be 400 nM; in assay [2] (Homo sapiens, LNCaP, 72 h), 45 nM; in assay [3] (PI3Kα, read-out: PI3Kα IC50) it was 55 nM.
For `CCNC(=NC#N)Nc1ccc(-c2nc(N3CCOCC3)c3cnn(C4CCN(Cc5cccnc5)CC4)c3n2)cc1` [Example 408, 2-cyano-1-ethyl-3-(4-{4-morpholin-4-yl-1-[1-(pyridin-3-ylmethyl)piperidin-4-yl]-1H-pyrazolo[3,4-d]pyrimidin-6-yl}phenyl)guanidine] the same measures were 3200 nM, 890 nM and 916 nM.
For `COC(=O)N1CCC(n2ncc3c(N4CCOC(C)C4)nc(-c4ccc(NC(=O)NCCF)cc4)nc32)CC1` (stereo not drawn) [Compound 844, methyl 4-[6-(4-{[(2-fluoroethyl)carbamoyl]amino}phenyl)-4-(2-methylmorpholin-4-yl)-1H-pyrazolo[3,4-d]pyrimidin-1-yl]piperidine-1-carboxylate] the same measures were 700 nM, 59 nM and 896 nM.
With `O=C(CCl)N1CCC(n2ncc3c(N4CCOCC4)nc(-c4ccc5[nH]ccc5c4)nc32)CC1` [Compound 93], the IC50 in assay [1] (Homo sapiens, 72 h) came to 1200 nM; in assay [2] (Homo sapiens, LNCaP, 72 h), 1100 nM; in assay [3] (PI3Kα, read-out: PI3Kα IC50), 337 nM.
For `CC(=O)Nc1ccc(-c2nc(N3CCOCC3)c3cn[nH]c3n2)cc1` [Compound 233, N-[4-(4-morpholin-4-yl-1H-pyrazolo[3,4-d]pyrimidin-6-yl)phenyl]acetamide] the same measures were 8500 nM, 3700 nM and 443 nM.
In the case of `CNC(=O)Nc1ccc(-c2nc(N3CCOCC3)c3cnn(C4CCN(C(=O)Oc5ccccc5)CC4)c3n2)cc1` [Compound 755, phenyl 4-(6-{4-[(methylcarbamoyl)amino]phenyl}-4-morpholin-4-yl-1H-pyrazolo[3,4-d]pyrimidin-1-yl)piperidine-1-carboxylate], the IC50 in assay [1] (Homo sapiens, 72 h) came to 160 nM; in assay [2] (Homo sapiens, 72 h), 60 nM; in assay [3] (PI3Kα IC50, PI3Kα), 16 nM.
Take `CC(C)OC(=O)N1CCC(n2ncc3c(N4CCOCC4)nc(-c4ccc(NC(=O)Nc5ccncc5)cc4)nc32)CC1` [Compound 839, isopropyl 4-(4-morpholin-4-yl-6-{4-[(pyridin-4-ylcarbamoyl)amino]phenyl}-1H-pyrazolo[3,4-d]pyrimidin-1-yl)piperidine-1-carboxylate]: the concentration for half-maximal inhibition (IC50) in assay [1] (Homo sapiens, 72 h) stood at 68 nM; in assay [2] (Homo sapiens, LNCaP, 72 h), 27 nM; in assay [3] (PI3Kα, read-out: PI3Kα IC50), 37 nM.
For the molecule `CNC(=O)Nc1ccc(-c2nc(N3CCOCC3)c3cnn(C4CCN(Cc5ccc(OC)nc5)CC4)c3n2)cc1` [Compound 574, 1-[4-(1-{1-[(6-methoxypyridin-3-yl)methyl]piperidin-4-yl}-4-morpholin-4-yl-1H-pyrazolo[3,4-d]pyrimidin-6-yl)phenyl]-3-methylurea], the half-maximal inhibitory concentration (IC50) is 700 nM in assay [1] (Homo sapiens, 72 h); less than 27 nM in assay [2] (Homo sapiens, LNCaP, 72 h); 33 nM in assay [3] (PI3Kα, read-out: PI3Kα IC50).
